Measured values published in US7605184B2, “Method of anesthesia” (priority 2008, dated 2009).
Like-named read-outs stand apart in the source and are kept apart here.

Assays:
[1] = currently used anesthetics; cited from earlier work
[2] = degradation by desiccated (dry) carbon dioxide absorbents at 40° C.; format: physicochemical; settings: for % Degr Per min: 40° C.
Procedure: Drying was accomplished by placing wet absorbent in a large flask receiving 1-1.5 L/min of oxygen (dry; no water vapor) for 4 days. The flask rested in an incubator at 50° C. The absorbent contained in the flask was weighed repeatedly (to essentially constant weight loss).
As above, all studies were conducted at 40° C. Desiccated (dry) absorbent (grams indicated) was placed in a 600 mL flask, and 100 or 200 mL of anesthetic at the indicated concentration was inserted. […] Values for % degraded per minute are given as the average and standard deviation (SD).

mice and rats = test: recovery, CNS irritation and survival after anesthesia in mice and rats; format: in vivo
mice = test: loss of righting reflex in mice; format: in vivo; settings: four mice, closed system with Amsorb, rectal temperature 30° C. (hypothermic)
Description: (§1) Clearly another significant property of an anesthetic is its ability to effect anesthesia in the first place. […] The minimum alveolar concentration of anesthetic at which 50% of subjects move in response to a noxious stimulus is designated “MAC.” In the case of 30-60 year old adult humans, the MAC values are 0.06 atm (i.e., 6%) for desflurane, 0.0115 atm (1.15%) for isoflurane and 0.0185 atm (1.85%) for sevoflurane). An alternative measurement similar to MAC that is based on the righting reflex in mice gave a value for the compound of formula (1) of 0.05 atm (5%). The value obtained in this alternative assay approximates but is usually a bit less than MAC.
In a closed system employing Amsorb® as the absorbent, four mice were anesthetized using the compound of formula (1). The righting reflex was lost at 3.22±0.54% of formula (1). The rectal temperature of the mice at the end of this experiment was 30° C. which is hypothermic for mice. Hypothermia decreases anesthetic requirement (Eger, E. I. II and Johnson, B. H.; Anesth Analg (1987) 66:974-976), and thus this experiment probably underestimated the concentration producing the loss of righting reflex.

[3] = degradation by wet (normal) carbon dioxide absorbents at 40° C., gas chromatography; format: physicochemical; settings: for % Degraded per Minute: 100 mL anesthetic
Procedure: Nine milligrams of the compound of formula (1) were placed in each of three 600 ml flasks containing 100 g of soda lime and maintained at 40° C. The 40° C. temperature is chosen to mimic that generated by the exothermic reaction of carbon dioxide with absorbent in a system wherein all gases are rebreathed. Soda lime contains sodium hydroxide as well as approximately 80% calcium hydroxide. A control flask contained the compound of formula (1) but no soda lime. Samples were taken at various timepoints and analyzed by gas chromatography using a flame ionization detector. […] It will be noted that the Y-axis is on a log scale so that the depletion is quite dramatic.
The procedure was identical to that of Example 1 except that an absorbent containing only calcium hydroxide as the base was used. This absorbent is marketed under the trademark Amsorb®.
The dramatic decrease in degradation with substitution of Amsorb® for soda lime applies to other absorbents that are composed of calcium hydroxide but contain minimal or no monovalent bases, LoFloSorb® and Drägersorb® Free. The general procedure of Example 1 was repeated using these two commercially available absorbents. […] All studies were conducted at 40° C. In all cases, the absorbents were “wet” (contained approximately 15% water by weight). The data in the table were obtained using the protocol set forth above wherein 100 g of absorbent was placed in a 600 mL flask, and 100 mL of anesthetic at the indicated concentration was inserted. Each study was done in triplicate. […] Values for % degraded per minute are given as the average and standard deviation (SD).

murine models = settings: cited from earlier work
[4] = blood/gas partition coefficient; format: physicochemical
Description: One highly desirable property of an inhaled anesthetic is that it permits rapid recovery once the administration of the anesthetic is halted. Typically, during surgical procedures, the subject is continuously administered the anesthetic, and it is helpful if the subject can recover as quickly as possible as soon as administration is stopped. The length of time required for such recovery is a function of the solubility of the anesthetic in the blood, which mimics solubility in the brain. Thus, anesthetics with very low blood/gas partition coefficients are highly desirable. The blood/gas partition coefficient for desflurane is 0.45; for sevoflurane is 0.65 and for isoflurane is even higher. The blood/gas partition coefficient for the compound of formula (1) is only 0.21, making it highly advantageous as permitting more rapid recovery than any of the currently used anesthetics.

rats = test: MAC in rats; format: in vivo; settings: five rats, 37° C. (normothermic)
Description: as §1
In an additional experiment, conducted at 37° C. which is normothermic, five rats were anesthetized using the compound of formula (1) and the MAC value found was 8.34±0.84%.

[5] = Strum et al. 1987; cited from earlier work
[6] = dry LoFloSorb 50 g, 200 mL injected
[7] = dry Amsorb 100 g, 100 mL injected
[8] = dry Drägersorb Free 25 g, 100 mL injected
[9] = dry LoFloSorb 25 g, 100 mL injected

SMILES: FC(F)OC(F)C(F)(F)F (centres unmarked) [Desflurane, desflurane, reference compound]
- blood/gas partition coefficient [1]: 0.45
- % Degr Per min ([2]; dry Amsorb 50 g, 100 mL injected): −0.1%
- % Degr Per min [2, 6]: 0.5%

SMILES: FC(F)OC(C(F)(F)F)C(F)(F)F [Formula (1), CHF2—O—CH(CF3)2]
- survival (mice and rats; 24 hours after anesthesia, mice and rats): All survived for 24 hours in apparent good health
- time to awake after administration of the anesthetic was stopped (mice and rats; mice and rats): 2 to 3 min
- irritation of the central nervous system (mice and rats; mice and rats anesthetized): In neither of these cases was there irritation of the central nervous system
- concentration at which the righting reflex was lost (mice): 3.22±0.54%
- degradation in flasks containing soda lime (FIG. 2) ([3]; 9 mg, 100 g soda lime, 600 ml flask, after 30 min): essentially complete degradation
- percentage of compound in the flask (FIG. 3) ([3]; 100 g Amsorb (calcium hydroxide only), 30 min interval): remained constant
- % Degraded per Minute ([3]; wet Amsorb 100 g): −0.05%
- % Degraded per Minute ([3]; wet Drägersorb Free 100 g): 0.102%
- % Degraded per Minute ([3]; wet LoFloSorb 100 g): 0.2%
- % Degraded per Minute ([3]; wet Soda Lime 100 g): 25.0%
- anesthetic quality (murine models; Speers et al., J. Med. Chem. 1971): good anesthetic
- side effects (murine models; murine models, Speers et al. 1971): undesirable side effects
- blood/gas partition coefficient [4]: 0.21
- % Degr Per min ([2]; dry Amsorb 20 g, 100 mL injected): 0.7%
- % Degr Per min [2, 7]: 2.7%
- rate of degradation on repeated addition of anesthetic (FIG. 4) ([2]; dry Amsorb, three flasks, repeated additions): progressively decreased
- % Degr Per min [2, 8]: 0.28%
- % Degr Per min [2, 9]: 55.0%
- % Degr Per min [2, 6]: 40.7%
- MAC value (rats): 8.34±0.84%

SMILES: FCOC(C(F)(F)F)C(F)(F)F [Sevoflurane, sevoflurane, reference compound]
- % Degraded per Minute ([3]; wet Drägersorb Free 100 g): −0.058%
- blood/gas partition coefficient [1]: 0.65
- % Degr Per min [2, 7]: 5.01%
- % Degr Per min [2, 8]: 0.52%
- % Degr Per min [2, 9]: 38.5%
- degradation in soda lime [5]: 13 % per hour
